Read-outs that look alike come from different tables or passages of the source.
Tests used:
[1] = target: T1, AtDHDPS2 (dihydrodipicolinate synthase 2) (Arabidopsis thaliana, UniProt Q9FVC8); test: DHDPS–DHDPR coupled enzyme assay (NADPH oxidation); type: biochemical
T1 construct: gene DHDPS2; recombinant, fusion tag cleaved
T1 sequence (Q9FVC8 40-365): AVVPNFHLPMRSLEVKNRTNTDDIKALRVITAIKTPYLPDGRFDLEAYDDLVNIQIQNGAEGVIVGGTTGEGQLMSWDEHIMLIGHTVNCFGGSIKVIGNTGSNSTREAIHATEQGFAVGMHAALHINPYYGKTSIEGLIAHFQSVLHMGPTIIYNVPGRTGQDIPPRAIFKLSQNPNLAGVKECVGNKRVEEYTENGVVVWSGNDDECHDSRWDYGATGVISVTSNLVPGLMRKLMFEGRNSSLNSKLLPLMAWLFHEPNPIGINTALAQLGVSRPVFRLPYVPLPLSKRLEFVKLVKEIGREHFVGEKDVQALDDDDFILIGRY

[2] = target: T2, AtDHDPS1 (dihydrodipicolinate synthase 1) (Arabidopsis thaliana, UniProt Q9LZX6); test: DHDPS–DHDPR coupled enzyme assay (NADPH oxidation); type: biochemical
T2 construct: gene DHDPS1; recombinant, fusion tag cleaved
T2 sequence (Q9LZX6 40-365): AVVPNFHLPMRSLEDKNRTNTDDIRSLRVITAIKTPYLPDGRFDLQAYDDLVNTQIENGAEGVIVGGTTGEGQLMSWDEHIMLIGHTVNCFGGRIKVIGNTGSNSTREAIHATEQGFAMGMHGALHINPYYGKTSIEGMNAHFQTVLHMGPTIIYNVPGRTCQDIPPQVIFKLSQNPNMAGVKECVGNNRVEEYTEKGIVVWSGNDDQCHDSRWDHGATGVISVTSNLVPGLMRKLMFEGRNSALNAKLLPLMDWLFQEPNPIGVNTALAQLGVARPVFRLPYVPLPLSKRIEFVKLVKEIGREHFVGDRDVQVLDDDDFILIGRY

Row | IC50 ([1]; read-out: IC50) [µM] | IC50 [2] [µM] | SMILES | IC50 [1] [µM]
1 | 116 ± 5.2 | 126 ± 6.5 | COc1ccccc1/C=C1\SC(=O)N(CC(=O)O)C1=O [MBDTA-1, (Z)−2-(5-(2-methoxybenzylidene)−2,4-dioxothiazolidin-3-yl)acetic acid] | 
2 |  |  | COc1ccc(C=C2SC(=O)N(CC(=O)O)C2=O)cc1 (stereo in doubt) [MBDTA-2, (Z)−2-(5-(4-methoxybenzylidene)−2,4-dioxothiazolidin-3-yl)acetic acid] | 64 ± 1

Reference: PMC8341977, “Towards novel herbicide modes of action by inhibiting lysine biosynthesis in plants” (eLife, 2021)
